{"source": "patent US20200121801A1", "about": "“DRUG DELIVERY CONJUGATES CONTAINING UNNATURAL AMINO ACIDS AND METHODS FOR USING” (priority 2012, published 2020)", "key": {"[1]": {"test_system": "adjuvant-induced arthritis", "assay": "Adjuvant-induced arthritis (AIA) model", "experimental": "METHOD. Adjuvant-Induced Arthritis (AIA) Model. Female Lewis rats are fed a folate-deficient diet (Harlan Teklad, Indianapolis, Ind.) for 9-10 days prior to arthritis induction. The adjuvant-induced arthritis (AIA) is induced by intradermal inoculation (at the base of tail) of 0.4-0.5 mg of heat-killed Mycobacteria butyricum (BD Diagnostic Systems, Sparks, Md.) in 100 μL light mineral oil (Sigma). Ten days after arthritis induction, paw edema (degree of arthritis) in rats is assessed using a modified arthritis scoring system: 0=no arthritis; 1=swelling in one type of joint; 2=swelling in two types of joint; 3=swelling in three types of joint; 4=swelling of the entire paw. A total score for each rat is calculated by summarizing the scores for each of the four paws, giving a maximum score of 16 for each rat. On Day 10 post arthritis induction, rats with a total arthritis score of […] were removed from the study and the remaining rats are distributed evenly across the control and treatment groups (n=5 for all groups except that n=2-3 for healthy controls). All treatments are started on Day 10 unless indicated otherwise. Rat paws are also evaluated radiographically to assess and determine bone damage.\nEXAMPLE. […] Starting 9 days after induction, rats with developing AIA are distributed according to arthritis scores into three groups (n=5): (1) the untreated AIA control, (2) the EC1669 treated group, and (3) the EC1669 plus EC0923 competition group. All treatments last for 2 consecutive weeks. The animals in the AIA control group are left untreated. The animals in the EC1669 treatment group are given twice-a-week subcutaneous doses of EC1669 at a dosage of 375 nmol/kg. The animals in the EC1669 plus EC0923 group are given twice-a-week subcutaneous doses of EC1669 at a dosage of 375 nmol/kg in conjunction to EC0923 at a dosage of 187.5 μmol/kg.\nEXAMPLE. […] CellCept is a prodrug of mycophenolic acid, an immunosuppressant drug used to prevent organ rejection in transplantation. CellCept is activated in vivo and releases its active product that can inhibit T cell proliferation and interfere with leukocyte adhesion to endothelial cells. To test the combination effect of EC1669 and CellCept, rats with developing AIA are distributed according to arthritis scores into four groups (n=5): (1) the untreated AIA control, (2) the EC1669 treated group, (3) the CellCept treated group, and (4) the EC1669 and CellCept combination group. All treatments start on day 9 after AIA induction and last 2 consecutive weeks. The animals in the AIA control group are untreated. The animals in the EC1669 treatment group are given weekly subcutaneous doses of EC1669 at a dosage of 1000 nmol/kg. The animals in the CellCept treatment group are given daily oral doses of CellCept at a dosage of 30 mg/kg, 5 days per week. The animals in the EC1669 and CellCept combination treatment group are given weekly subcutaneous doses of EC1669 at a dosage of 1000 nmol/kg and daily oral doses of CellCept at a dosage of 30 mg/kg, 5 days per week."}, "[2]": {"biological_target": "T1, folate receptors (FR) on CHO-FRβ cells (Homo sapiens, UniProt P14207)", "T1 construct": "expressed in transfected cells; host or cells: CHO cells (CHO-FRβ)", "T1 sequence (P14207 17-230)": "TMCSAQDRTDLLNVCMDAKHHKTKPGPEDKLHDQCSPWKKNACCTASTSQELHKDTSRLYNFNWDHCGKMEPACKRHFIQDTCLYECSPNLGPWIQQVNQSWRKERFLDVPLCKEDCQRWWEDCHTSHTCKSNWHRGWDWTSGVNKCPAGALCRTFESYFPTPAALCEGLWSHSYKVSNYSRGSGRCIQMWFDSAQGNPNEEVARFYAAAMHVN", "assay": "Relative affinity assay (3H-folic acid competition) on CHO-FRβ cells", "format": "binding", "settings": "1 h at 37° C."}, "[3]": {"assay": "Plasma clearance after s.c. administration", "format": "in vivo, Lewis rats", "experimental": "METHOD. Plasma clearance. In vivo studies include a minimum of 3 test animals, such as rats, per time point. Illustratively, female Lewis rats with jugular vein catheters (Harlan, regular rodent diet) are given a single subcutaneous injection of test compound, such as EC1669 at 500 nmol/kg. Whole blood samples (300 μL) are collected at the following time points: 1 min, 10 min, 30 min, 1 h, 2 h, 3 h, 4 h, 8 h, and 12 h after injection. The blood samples are placed into anti-coagulant tubes containing 1.7 mg/mL of K3-EDTA and 0.35 mg/mL of N-maleoyl-beta-alanine (0.35 mg/mL) in a 0.15% acetic acid solution. Plasma samples are obtained by centrifugation for 3 min at ˜2,000 g and stored at −80° C. The amounts of test compound in the plasma and any metabolites, such as EC1669 and its two active metabolites aminopterin (AMT) and AMT hydrazide (EC0470), respectively, are quantified by LC-MS/MS."}, "[4]": {"test_system": "experimental autoimmune encephalomyelitis", "assay": "Autoimmune encephalomyelitis (EAE) model", "format": "in vivo, rats", "experimental": "METHOD. Autoimmune Encephalomyelitis (EAE) Model. EAE is induced in rats by immunization against 25 μg of guinea pig myelin basic protein (MBP) formulated with CFA containing 1 mg of grounded Mycobacterium tuberculosis H37Ra. Pertussis toxin is given intraperitoneally (1 μg/rat) to enhance the organ-specific autoimmunity. Starting 8 days after induction, rats are divided into […]: (1) untreated control (n=8), (2) test compound (n=7), and (3) test compound plus competitor compound (n=7), such as EC0923 competition. All treatments start on day 8 after EAE induction. The animals in the EAE control group are left untreated. […] The clinical severity of EAE is monitored on a daily basis and graded on a scale of 0 to 5 per animal. The clinical signs of ascending paralysis of EAE rats are divided into a 0-5 scale: 0=No disease, 0.5=distal limp tail, 1=limp tail, 2=mild paraparesis; ataxia-weakened hind limbs, 3=moderate paraparesis; hind limbs paresis, 4=complete hind limb paralysis, 5=complete hind limb paralysis and incontinence (euthanasia). On day 16, the animals are euthanized and brain and spinal cords are fixed in formalin for histology."}, "[5]": {"test_system": "experimental autoimmune uveitis", "assay": "Experimental autoimmune uveitis (EAU) model", "procedure": "Animal Experimental Autoimmune Uveitis Model. Experimental autoimmune uveitis (EAU) is induced in female Lewis rats maintained on a folate-deficient diet (Harlan Teklad, Indianapolis, Ind.). On Day 0, the animals are immunized subcutaneously with 25 μg of bovine S-Ag PDSAg peptide formulated with Freund's incomplete adjuvant containing 0.5 mg of grounded M. Tuberculosis H37Ra. Purified pertussis toxin (PT) is given at a dosage of 1 μg per animal on the same day via intraperitoneal injection. The severity of uveitis in each eye is assessed by a qualitative visual score system: 0=No disease, eye is translucent and reflects light (red reflex); 0.5 (trace)=Dilated blood vessels in the iris, 1=Engorged blood vessels in iris, abnormal pupil contraction; 2=Hazy anterior chamber, decreased red reflex; 3=Moderately opaque anterior chamber, but pupil still visible, dull red reflex; and 4=Opaque anterior chamber and obscured pupil, red reflex absent, proptosis. This assessment yields a maximum uveitis score of 8 per animal.\nAll treatments start on day 8 after EAU induction. The animals in the EAU control group are untreated. […] The uveitis score and animal body weight are recorded for each animal at predetermined frequencies. The clinical severity of EAU is monitored on a daily basis using an ophthalmoscope and graded on a scale of 0 to 4 per eye with a maximum possible score of 8 per animal. […]"}, "[6]": {"settings": "375 nmol/kg s.c. twice-a-week, 2 weeks"}}}
{"smiles": "N=c1[nH]c(N)nc2ncc(CNc3ccc(C(=O)N[C@@H](CCC(=O)NNC(=O)OCCSSC[C@@H](NC(=O)[C@H](CCC(=O)NC[C@H](O)[C@@H](O)[C@H](O)[C@H](O)CO)NC(=O)[C@@H](CCC(=O)O)NC(=O)[C@H](CCC(=O)NC[C@H](O)[C@@H](O)[C@H](O)[C@H](O)CO)NC(=O)[C@@H](CCC(=O)O)NC(=O)[C@H](CCC(=O)NC[C@H](O)[C@@H](O)[C@H](O)[C@H](O)CO)NC(=O)CC[C@H](NC(=O)c4ccc(NCc5cnc6nc(N)[nH]c(=O)c6n5)cc4)C(=O)O)C(=O)O)C(=O)O)cc3)nc12", "note": "[EC1669]", "values": [{"measurement": "reduction in paw swelling", "setting": "[1]; 250 nmol/kg, biw", "result": 64, "unit": "%"}, {"measurement": "whole animal toxicity (body weight)", "setting": "[1]; 375 nmol/kg", "result": "does not exhibit whole animal toxicity"}, {"measurement": "alleviation of bone damage compared to control", "setting": "[1]; [6]", "result": "~80", "unit": "%"}, {"measurement": "alleviation of paw swelling compared to control", "setting": "[1]; [6]", "result": "~80", "unit": "%"}, {"measurement": "reduction in paw swelling", "setting": "[1]; 500 nmol/kg, biw", "result": 81, "unit": "%"}, {"measurement": "reduction in paw swelling", "setting": "[1]; 1000 nmol/kg, siw", "result": 44, "unit": "%"}, {"measurement": "anti-arthritic activity with folate competitor EC0923", "setting": "[1]; EC0923 187.5 μmol/kg co-dosed", "result": "competable (blocked)"}, {"measurement": "relative affinity (normalized against folic acid, set to 1)", "setting": "[2]", "result": 0.13}, {"measurement": "half-life", "setting": "[3]; female, Lewis, rat, in vivo, sc, EC1669 500 nmol/kg s.c., blood, read-out: elimination half-life", "result": "~37", "unit": "min"}, {"measurement": "Cmax", "setting": "[3]; female, Lewis, rat, in vivo, sc, EC1669 500 nmol/kg s.c., plasma, read-out: Cmax", "result": "~472", "unit": "nM"}, {"measurement": "AUC", "setting": "[3]; female, Lewis, rat, in vivo, sc, EC1669 500 nmol/kg s.c., read-out: area-under-the-curve (AUC) (converted)", "result": 0.867, "unit": "µM·h"}, {"measurement": "% Released: AMT", "setting": "[3]; plasma, 12 h collection period", "result": 9.5, "unit": "%"}, {"measurement": "% Released: EC0470", "setting": "[3]; plasma, 12 h collection period", "result": 6.3, "unit": "%"}, {"measurement": "% Released: Total (AMT plus EC0470)", "setting": "[3]; plasma, 12 h collection period, based on AUC", "result": "~15.8", "unit": "%"}, {"measurement": "AMT/EC0470 Ratio", "setting": "[3]; rat, in vivo", "result": 1.51}, {"measurement": "therapeutic effect with folate receptor competitor EC0923", "setting": "[4]; excess EC0923", "result": "blocked"}, {"measurement": "efficacy against EAE (clinical score)", "setting": "[4]; s.c. every other day from day 8", "result": "effectively suppresses the neurological symptoms"}, {"measurement": "treatment-related weight loss", "setting": "[4]; when dosed alone", "result": "not observed"}, {"measurement": "symptoms of EAU (uveitis score)", "setting": "[5]; 250 nmol/kg s.c. q2d, five doses from day 8", "result": "effectively reduces the symptoms of EAU"}, {"measurement": "treatment-related weight loss / whole animal toxicity", "setting": "[5]; rat, in vivo", "result": "does not cause whole animal toxicity"}]}
